We go through three compounds from patent publication US11898167B2, “Reversible stencils for fabricating micro-tissues” (The Regents of the University of California, priority 2014, dated 2024).

Entries after “also recorded” stand apart in the source; their conditions may differ.

Holding throughout (assay type): cell-based, human
Assay [1] has as its system micro-muscle heart tissues. In words: Calcium dose response of twitch force of micro-muscles. To be noted: increasing extracellular calcium concentrations (2 mM, 6 mM shown). The source says: Representative micro-muscle heart tissues were generated by seeding small numbers of cardiomyocytes into stencil microwells as described herein. Separate micro-muscles were then contacted with different extracellular calcium concentrations.

In assay [2] the test system is iPS-CM micro-tissues harboring the GCaMP6f calcium indicator. Put plainly: Calcium flux (GCaMP6f reporter) in iPS-CM micro-tissues. Further details: dose or concentration left out as unconfirmed. To be noted: 1 week and 2 week micro-tissues, paced at 1 Hz; isoproterenol. On the procedure: Induced pluripotent stem cells genetically modified to express the GCaMP6f calcium indicator gene product, and then differentiated into cardiomyocytes (iPS-CM). Micro-tissues were made with iPS-CM harboring the GCaMP6f calcium indicator, to allow continuous recording of calcium flux as illustrated in FIG. 8.
FIG. 8D-8E illustrate the functional maturation of iPS-CM-derived micro-tissues (μHT, micro-heart tissues). After 1 or 2 weeks of incubation in the stencil microwells, the micro-tissues were paced at 1 Hz for analysis of inotropy.
(In general: Calcium assays in cells follow changes in intracellular calcium, usually with a dye or a luminescent sensor.)

Assay [3] concerns wild type iPS-CM micro-tissues. In words: Beating (beat rate, contraction velocity) of wild type iPS-CM three-dimensional micro-tissues in stencil microwells, drug response. On the procedure: (§1) The beating rate, maximum contraction velocity, and spatial coordination of beating within micro-tissues was assessed visually, and quantified using image processing software was used, such as the custom block-matching optical flow software, described in a publication that is currently under review (Huebsch 2014). Micro-tissue response to drugs, including verapamil and isoproterenol, was tested using an automated inverted microscope (Zeiss).
Beginning five days after seeding cells into micro-tissue molds, the beating parameters of spontaneously beating (non-paced) iPS-CM micro-tissues were analyzed. […] Despite this difference, micro-tissues maintained in RPMI media with B27 supplement all beat at nearly the same rate (FIG. 4B). Micro-tissues incubated in StemPro 34 media beat with a slightly more variable rate from one tissue to the next, but at a basal rate closer to the physiological levels of 1 Hz for human cells (data not shown).

Assay [4] has as its system MYBPC3−/− micro-tissues. In words: Beat-rate response of MYBPC3 null iPS-CM micro-tissues. On the procedure:
as §1
To model hypertrophic cardiomyopathy, MYPBC3 was knocked out of wild type iPS.

Assay [5] relates to iPS-CM two-dimensional monolayers. In words: Beating of iPS-CM in unpatterned two-dimensional monolayers/cell clusters, drug response.
In assay [6] the test system is heterozygous MYPBC3+/− iPS micro-tissues. Put plainly: Beat-rate response of heterozygous MYBPC3 iPS-CM micro-tissues. To be noted: first daily 10 uM dose. On the procedure:
as §1
FIGS. 4G and 4H further illustrate that micro-tissues generated from mutant cells are excellent models of human diseases. Micro-tissues were generated within the dogbone-shaped microwells described herein from three different cell types: wild type MYPBC3^+/+ iPS, heterozygous MYPBC3^+/− iPS, and null MYPBC3^−/− iPS. […] However, upon repeated exposure to isoproterenol, the differences heterozygous and null MYPBC3 tissue responses became less significant (FIG. 4H).

For the compound `[Ca+2]` [calcium], the twitch force result in assay [1] is recorded as “dramatically increases”.

`CC(C)NCC(O)c1ccc(O)c(O)c1` (stereo not shown) [isoproterenol]: the calcium flux response result in assay [2] is listed as “responded to isoproterenol”. For the same compound, the beat-rate response entry in assay [3] (3D micro-tissues, wild type iPS-CM, non-paced, 10 μm isoproterenol) is reported as “highly reproducible; also recorded: robust increase in beat-rate response”; in assay [5] (2D cultured iPS-CM monolayers, non-paced, 10 μm isoproterenol), “erratic/unpredictable responses; also recorded: varies significantly from one test to the next; also recorded: large variance amongst samples”. Besides, the “intensity of beating, measured via the maximum contraction velocity (inotropic response)” value in assay [3] (3D micro-tissues, 10 μm isoproterenol) was “exhibit an inotropic response”. The “cessation of beating at high doses” value in assay [3] (3D-cultured micro-tissues within stencil wells, high doses) is “no such effects were observed”; in assay [5] (2D-cultured cells and cell clusters, high doses), “stopped beating”. Also, the “beating frequency in response to isoproterenol” value in assay [3] (wild type MYPBC3+/+ micro-tissues, first daily 10 uM dose) is given as “greatest increase in beating frequency”; in assay [4] (null MYPBC3−/− micro-tissues, first daily 10 uM dose), “returned to a lower beating frequency significantly faster”; in assay [6], “less than the wild type MYPBC3 tissues but greater than the null MYPBC3 tissues”. The “beat-rate (chronotropic response)” value in assay [4] (short-term (30 minutes) and chronic (5 days of daily dosing) exposure, 10 μm isoproterenol, compared with wild type) was “blunted decrease in beat-rate”. The “intensity of beating (inotropic response)” value in assay [5] (2D monolayers, 10 μm isoproterenol) is reported as “did not affect the intensity of beating”.

In the case of `COc1ccc(CCN(C)CCCC(C#N)(c2ccc(OC)c(OC)c2)C(C)C)cc1OC` (stereo not shown) [verapamil], the “IC50 value (beating)” value in assay [3] (stencil micro-tissues compared to the same cells in non-patterned 2D monolayers, 30 minutes per dose) is given as “higher IC50 value”.
